Experimental data as given in ChEMBL document CHEMBL4340578, “11-Aminostrychnine and N-(Strychnine-11-yl)propionamide: Synthesis, Configuration, and Pharmacological Evaluation at Glycine Receptors” (J Nat Prod, 2019).

Tests used:
[1] = molecular target: T1, Glycine receptor subunit alpha-1 (Homo sapiens, UniProt P23415); assay: Antagonist activity at human glycine receptor subunit alpha-1 expressed in human tsA201 cells assessed as reduction in glycine-induced response by fluorescence-based FLIPR membrane potential blue assay; format: cell-based
T1 sequence (P23415 whole entry): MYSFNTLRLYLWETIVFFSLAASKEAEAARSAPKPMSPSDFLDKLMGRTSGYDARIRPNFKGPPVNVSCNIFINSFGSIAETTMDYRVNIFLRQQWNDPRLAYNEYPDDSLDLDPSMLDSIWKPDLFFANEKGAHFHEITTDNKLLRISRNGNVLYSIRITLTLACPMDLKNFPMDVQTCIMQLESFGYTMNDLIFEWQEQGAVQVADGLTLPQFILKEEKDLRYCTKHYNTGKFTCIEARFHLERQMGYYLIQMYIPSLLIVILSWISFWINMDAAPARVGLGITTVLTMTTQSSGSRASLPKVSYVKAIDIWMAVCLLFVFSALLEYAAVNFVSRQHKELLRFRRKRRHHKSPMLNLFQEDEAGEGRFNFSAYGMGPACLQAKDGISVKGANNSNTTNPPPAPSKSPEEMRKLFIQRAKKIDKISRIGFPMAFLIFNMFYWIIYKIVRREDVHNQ

[2] = molecular target: T2, Glycine receptor (alpha-1/beta) (Homo sapiens, UniProt P23415+P48167); assay: Antagonist activity at human glycine receptor subunit alpha-1beta expressed in human tsA201 cells assessed as reduction in glycine-induced response by fluorescence-based FLIPR membrane potential blue assay; format: cell-based
T2 sequence (P48167 whole entry, one chain of several): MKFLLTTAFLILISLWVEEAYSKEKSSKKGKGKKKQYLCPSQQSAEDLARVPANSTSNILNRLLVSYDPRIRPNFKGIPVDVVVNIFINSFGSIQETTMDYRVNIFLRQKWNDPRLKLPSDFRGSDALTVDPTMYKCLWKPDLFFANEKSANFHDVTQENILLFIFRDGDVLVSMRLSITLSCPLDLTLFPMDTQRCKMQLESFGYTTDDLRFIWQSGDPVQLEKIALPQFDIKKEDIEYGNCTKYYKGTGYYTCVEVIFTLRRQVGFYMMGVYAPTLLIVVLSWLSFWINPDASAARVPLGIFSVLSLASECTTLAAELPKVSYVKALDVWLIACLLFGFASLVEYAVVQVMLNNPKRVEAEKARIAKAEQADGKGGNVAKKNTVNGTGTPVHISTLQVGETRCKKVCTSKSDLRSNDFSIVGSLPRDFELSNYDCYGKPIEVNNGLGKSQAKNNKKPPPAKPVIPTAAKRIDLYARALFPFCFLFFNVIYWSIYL

[3] = molecular target: T1, Glycine receptor subunit alpha-1; assay: Displacement of [3H]strychnine from human glycine receptor subunit alpha-1 expressed in HEK293 cell membranes
[4] = molecular target: T1, Glycine receptor subunit alpha-1; assay: Antagonist activity at human glycine receptor subunit alpha-1 expressed in HEK293 cells assessed as reduction in glycine-induced whole cell currents by patch-clamp technique; format: cell-based
[5] = molecular target: T2, Glycine receptor (alpha-1/beta); assay: Antagonist activity at human glycine receptor subunit alpha-1beta expressed in HEK293 cells assessed as reduction in glycine-induced whole cell currents by patch-clamp technique; format: cell-based

## N[C@@H]1C(=O)N2c3ccccc3[C@@]34CCN5CC6=CCO[C@@H]1[C@@H]([C@H]23)[C@H]6C[C@H]54
[1]
  IC50: 1000 nM
[2]
  IC50: 7700 nM
[3]
  Ki: 741 nM
[4]
  IC50: 194 nM

## CCC(=O)N[C@@H]1C(=O)N2c3ccccc3[C@@]34CCN5CC6=CCO[C@@H]1[C@@H]([C@H]23)[C@H]6C[C@H]54
[5]
  IC50: 147 nM
[1]
  IC50: 710 nM
[2]
  IC50: 2200 nM
[3]
  Ki: 91 nM
[4]
  IC50: 173 nM

## O=C1C[C@@H]2OCC=C3CN4CC[C@]56c7ccccc7N1[C@H]5[C@H]2[C@H]3C[C@H]46 [STRYCHNINE]
[1]
  IC50: 150 nM
[2]
  IC50: 510 nM
[3]
  Ki: 123 nM
